In US10870634B2, “Histone demethylase inhibitors” (CELGENE QUANTICEL RESEARCH, INC., priority 2016, dated 2020) one finds IC50 data, which are given here for 3 compounds.

Each structure is given as a SMILES string.

The experiment addresses T1, Jarid1B (Homo sapiens, UniProt Q9UGL1).
T1 construct: purchased BPS Bioscience (or custom made by MolecularThroughput) 50121
T1 sequence (Q9UGL1 2-751): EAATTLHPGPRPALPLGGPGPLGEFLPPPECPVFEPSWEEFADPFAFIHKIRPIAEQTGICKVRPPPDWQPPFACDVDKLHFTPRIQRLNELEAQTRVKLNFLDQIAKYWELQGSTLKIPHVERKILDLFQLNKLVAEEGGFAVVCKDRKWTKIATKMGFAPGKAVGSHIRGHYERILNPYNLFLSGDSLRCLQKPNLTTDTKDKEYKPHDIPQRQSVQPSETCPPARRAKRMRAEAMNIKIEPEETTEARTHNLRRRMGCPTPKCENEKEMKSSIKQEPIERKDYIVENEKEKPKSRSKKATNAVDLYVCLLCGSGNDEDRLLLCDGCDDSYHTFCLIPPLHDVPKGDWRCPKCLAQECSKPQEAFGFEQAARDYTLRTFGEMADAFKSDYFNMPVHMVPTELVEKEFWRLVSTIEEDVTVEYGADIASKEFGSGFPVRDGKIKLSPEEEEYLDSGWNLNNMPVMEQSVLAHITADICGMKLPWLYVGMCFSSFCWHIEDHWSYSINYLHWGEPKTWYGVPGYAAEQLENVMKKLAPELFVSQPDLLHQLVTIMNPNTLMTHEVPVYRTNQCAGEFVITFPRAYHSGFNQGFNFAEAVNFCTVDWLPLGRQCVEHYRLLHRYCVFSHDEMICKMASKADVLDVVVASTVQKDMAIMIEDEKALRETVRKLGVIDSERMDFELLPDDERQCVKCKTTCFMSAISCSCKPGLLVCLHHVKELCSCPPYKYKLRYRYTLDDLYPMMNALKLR
The experiment can be described thus: Jarid1B in vitro enzyme inhibition assay (TR-FRET). It is filed as biochemical. Particulars: 0.8 nM Jarid1B, 300 nM H3K4me3-biotin peptide, 2 μM alpha-ketoglutaric acid. An excerpt: This assay determines the ability of a test compound to inhibit Jarid1B, JMJD2C and JMJD3 demethylase activity. Baculovirus-expressed Jarid1B (GenBank Accession # NM-006618, AA 2-751) was purchased from BPS Bioscience (Cat #50121) or custom made by MolecularThroughput. Baculovirus-expressed JMJD2C (GenBank Accession # BC143571, AA 2-372) was purchased from BPS Bioscience (Cat #50105). Baculovirus-expressed JMJD3 (GenBank Accession # NM_001080424, AA1043-end) was purchased from BPS Bioscience (Cat #50115).
The ability of test compounds to inhibit the activity of Jarid1B was determined in 384-well plate format under the following reaction conditions: 0.8 nM Jarid1B, 300 nM H3K4me3-biotin labeled peptide (Anaspec cat #64357), 2 μM alpha-ketoglutaric acid in assay buffer of 50 mM HEPES, pH 7.3, 0.005% Brij35, 0.5 mM TCEP, 0.2 mg/ml BSA, 50 μM sodium L-ascorbate, and […] ammonium ironII sulfate. Reaction product was determined quantitatively by TR-FRET after the addition of detection reagent Phycolink Streptavidin-allophycocyanin (Prozyme) and Europium-anti-mono-or di-methylated historic H3 lysine 4 (H3K4me1-2) antibody (PerkinElmer) in the presence of 5 mM EDTA in LANCE detection buffer (PerkinElmer) at a final concentration of 25 nM and 1 nM, respectively.
The assay reaction was initiated by the following: 2 μl of the mixture of 900 nM H3K4me3-biotin labeled peptide and 6 μM alpha-ketoglutaric acid with 2 μl of 11-point serial diluted inhibitor in 3% DMSO was added to each well of the plate, followed by the addition of 2 μl of 2.4 nM Jarid1B to initiate the reaction. […] Plates were read by EnVisionMultilabel Reader in TR-FRET mode (excitation at 320 nm, emission at 615 nm and 665 nm) after 1 hr incubation at room temp. A ratio was calculated (665/615) for each well and fitted to determine inhibition constant (IC50).
The ability to inhibit demethylase activity was quantified and the respective IC50 value was determined for substituted triazolylpyridine derivative compounds. […]
`Fc1cnccc1-c1nn[nH]c1C(F)(F)F` [Example 1, 3-fluoro-4-[5-(trifluoromethyl)-1H-1,2,3-triazol-4-yl]pyridine] came in with an IC50 above 10 µM. The figure for `Fc1ccc(Cl)cc1Nc1cnccc1-c1nn[nH]c1C(F)(F)F` [Example 2, N-(5-chloro-2-fluorophenyl)-4-[5-(trifluoromethyl)-1H-1,2,3-triazol-4-yl]pyridin-3-amine] is above 10 µM; for `FC(F)(F)c1[nH]nnc1-c1ccncc1NCC1CCCc2ccccc21` (stereo not drawn) [Example 3, N-[(1,2,3,4-tetrahydronaphthalen-1-yl)methyl]-4-[5-(trifluoromethyl)-1H-1,2,3-triazol-4-yl]pyridine-3-amine] it is above 10 µM.

As a reminder, the IC50 is the concentration that inhibits the measured activity by half. Lower therefore signals greater potency.
